The text below walks through data of patent US10631557B2, “Preservative system for acidic beverages based on sequestrants” (PepsiCo, Inc., priority 2008, dated 2020).

Data set [1] relates to all 7 bio-indicator strains. As to the kind of experiment: Inoculated 2% juice beverage pH 3.4, sequestrant and weak acid combinations (Examples 27-29). It counts as cell-based. The conditions noted are these: for SHMP concentration that prohibits outgrowth of all 7 bio-indicator strains: potassium sorbate 0.015%. An excerpt: (§1) Copper, less than 1 microgram per liter Zinc less than 1 microgram per liter, Nickel, less than 1 microgram per liter and Iron less than 0.1 microgram per liter. The water hardness was/is adjusted to 50 ppm through addition of mixture of CaCl2 and MgCl2.
(§2) The spoilage organisms for the following examples are identified as follows: Y3, Zygosaccharomyces bailii isolate of Pepsi (Strain 906); C-7UP, Brettanomyces isolate of Pepsi, (Cherry 7-UP); Spore, ascospore preparation of Saccharomyces cerevisiae isolate of Pepsi (strain “spore”). Y22, ATCC 60484 Zygosacharomyces bailii; M1, Paecilomyces isolate of Pepsi; Y107 ATCC 52407; M2 ATCC 36614 Byssochlamys nieva. An inoculum of approximately 40 per milliliter was/is employed for each organism. All test samples were/are incubated 16 weeks at 25 C.
(§3) A preparation of beverage was divided into three aliquots; one was supplemented with EDTA (30 ppm) and the remaining two aliquots were supplemented with either 15 or 30 ppm EDDS.
(§4) The beverage aliquots were identical with the exception of the presence or concentration of either EDTA or EDDS. Each aliquot was divided further into smaller volume test samples wherein the concentration of potassium sorbate varies from 0-1500 ppm (0-0.15%). The concentration of EDTA or EDDS is held constant. Under these circumstances, it is possible to establish whether either EDTA or EDDS permitted the use of lowered concentrations of potassium sorbate to preserve a product of pH 3.4. […] The beverage is formulated to contain 50 ppm hardness.
The biodegradable sequestrant ethylene diamine disuccinic acid was admixed with a sodium hexametaphosphate and cinnamic acid in the beverage as shown in the formula for the beverage.
A 2% fruit juice based non-carbonated beverage of pH 3.4 and about 12 Brix was formed by combining the following ingredients.
The biodegradable sequestrant ethylene diamine disuccinic acid was admixed with a bis-phosphonate (Etidronate) wherein the two sequestrants combined to limit the availability of divalent cations to spoilage microorganisms. The beverage was also supplemented with potassium sorbate.
(§5) A 2% fruit juice based non-carbonated beverage of pH 3.4 and about 12Brix was formed by combining the following ingredients.

In a further data set the test system is Saccharomyces cerevisae. As to the kind of experiment: Growth in beverage acidified to pH 3.6 with malic acid (Example 33). In kind it is cell-based.
The conditions of data set [2]: 25 C; cited from earlier work.
Data set [3] can be described thus: Stability against heat or acid induced hydrolysis in beverage. In kind it is physicochemical. The conditions noted are these: thermal processing or ambient aqueous solution. As to the method:
The maximum temperature of product in container of 71.3° C. permits the use of standard PET containers as opposed to the environmentally less-sound heat-set PET containers typically employed in hot fill operations. […] A formulation containing SHMP in place of bis-phosphonate will fail because of the degradation of SHMP that occurs during thermal processing.
Furthermore, the problem of pH drift that accompanies the use of SHMP is avoided. Substituting EDDS for EDTA avoids the concerns associated with employing a substance that is not environmentally sound.
Bis-phosphonates, as a substitute for SHMP, allows for the use of thermal processing of beverage in that all bis-phosphonates are stable against heat or acid induced hydrolysis. Such is not the case for polyphosphates such as SHMP. Furthermore, the problem of pH drift that accompanies the use of SHMP at ambient temperatures is avoided. Substituting EDDS for EDTA avoids the concerns associated with employing a substance that is not environmentally sound.

The subject of data set [4] is Strain Y3. As to the kind of experiment: Yeast strains spotted on agar-solidified beverage plates containing a weak organic acid (Example 25). It counts as cell-based, Zygossacharomyces bailii. The conditions noted are these: sodium benzoate 700 or 1000 ppm, potassium sorbate 500 or 800 ppm, cinnamic acid 25-200 ppm. The protocol: A 2 fold concentrate of beverage was prepared and was then mixed with an equal volume of 15% molten agar. Before solidification of the agar, the single strength beverage formulation containing 7.5% molten agar, was then divided into aliquots and to each separate aliquot was added, with the exception of one, sodium benzoate, potassium sorbate or cinnamic acid. The aliquot not receiving either potassium sorbate or cinnamic acid served as a positive control. While the agar was still molten, the agar-beverage aliquots (containing a single weak acid at a specified concentration) were poured into separate Petri plates. In Two agar plates. sodium benzoate was present at either 700 ppm or 1000 ppm) Two agar plates contained potassium sorbate (500 or 800 ppm). Six agar plates contained cinnamic acid ranging in concentrations of 25-200 ppm. Agar solidification essentially provides single strength beverage formulation in a semi-solid state.
The 2 fold concentrate of single strength beverage and the agar supplemented single strength beverage is prepared as follows:
After solidification of juice-agar mixture, various yeast strains (FIG. 2A) were spotted to the gel-surface of each type of mixture employing an identical pattern in each test (FIG. 2B) such that it was possible to identify the outgrowth of specific individual strains. […]

The conditions of data set [5]: acid pH. An excerpt:
Further, at least one regulatory agency in Asia has established an upper limit for the use of potassium sorbate at 50 ppm. If other regulatory agencies follow suite, it will be necessary to broadly apply a complement to potassium sorbate. […] Beverages are generally produced from concentrates and a […] beverage concentrate should contain 1200-1500 ppm potassium sorbate to yield a finished beverage concentration of 240-300 ppm. This often proves problematic during the batching of beverage and it is clear that a final beverage formulation containing 50-150 ppm potassium sorbate would be favored.

The next data set deals with Mold (M1 & M6). The conditions noted are these: pH 3.4.
From the text: as §1, §2
(§6) A preparation of beverage was divided into multiple small volume aliquots, each aliquot containing a different concentration of potassium sorbate. The range of concentration of potassium sorbate is 0-0.094% (0-940 ppm). Preparations (aliquots) of beverage containing potassium sorbate at each test concentration (48 different values) are inoculated separately with one of 7 different spoilage organisms (bio-indicator) for a total of 336 test samples.
as §3, §5, §4

In data set [6] the test system is strain Y3. The conditions noted are these: potassium sorbate alone.
From the text: as §1, §2, §6
(§7) The 2% fruit juice based non-carbonated beverage of pH 3.4 and about 12 Brix was generated by combining the following ingredients.

Data set [7] concerns bio-indicators in the absence of Y3. The conditions noted are these: potassium sorbate alone, pH 3.4, 16 weeks at 25 C, FIG. 3A.
From the text: as §1, §2, §6, §7

Where “and” joins values, the source holds several entries; their conditions need not be identical. Identical values can stand only once. Like-named read-outs stand apart in the source and are kept apart here.

As to `O=C([O-])C=Cc1ccccc1.[K+]` [K+cinnamate, Potassium Cinnamate], the “K+cinnamate concentration that prohibits outgrowth of all 7 bio-indicator strains” value in [1] (with 30 ppm EDDS and 750 ppm SHMP, pH 3.4, FIG. 5B) is “no more than 50 ppm”; in data set [1] (with 30 ppm EDTA and 750 ppm SHMP, pH 3.4, FIG. 5A), 75 ppm.
As to `CCCCCN(C)CCC(O)(P(=O)(O)O)P(=O)(O)O` [Ibandronate, ibandronate], the “effect on growth of Saccharomyces cerevisae” value in the data set with Saccharomyces cerevisae (about 300 ppm, beverage pH 3.6 with malic acid) is “impair the growth”.
With `O=C(O)CN(CCN(CC(=O)O)CC(=O)O)CC(=O)O` [EDTA, ethylenediamine tetraacetic acid], the “log K for sodium” value in data set [2] is 1.7.
For the molecule `CC(O)(P(=O)(O)O)P(=O)(O)O` [Etridonate, (1-hydroxyethylidene)bis-phosphonate], the “Etridonate concentration that prevents outgrowth of all seven spoilage organisms” value in [1] (with 30 ppm EDDS (so in the source) and 150 ppm potassium sorbate, pH 3.4, FIG. 6D) worked out at 250 ppm. In [1] (with 30 ppm EDDS and 150 ppm potassium sorbate, pH 3.4, FIG. 6C), the “Etridonate concentration that prohibits outgrowth of all seven bio-indicator strains” value was < 425 ppm and < 450 ppm.
For `O=P1([O-])OP(=O)([O-])OP(=O)([O-])OP(=O)([O-])OP(=O)([O-])OP(=O)([O-])O1.[Na+].[Na+].[Na+].[Na+].[Na+].[Na+]` [SHMP, sodium hexametaphosphate], the “SHMP concentration that prohibits outgrowth of all 7 bio-indicator strains” value is reported as 280 ppm in [1] (with 30 ppm EDDS, pH 3.4, FIG. 6A) and 250 ppm in [1] (with 30 ppm EDTA, pH 3.4, FIG. 6B). Besides, in [3], the “stability against heat or acid induced hydrolysis” value was “degradation”.
With `O=C(O)C=Cc1ccccc1` [Cinnamic acid, cinnamic acid], the “tolerance of strain Y3 to organic acid preservative (outgrowth on plate)” value in the data set with Strain Y3 [4] was “among the most tolerant strains”.
Turning to `NCCCC(O)(P(=O)(O)O)P(=O)(O)O` [Alendronate, alendronate], the “effect on growth rate of Saccharomyces cerevisae” value in the data set with Saccharomyces cerevisae (0.3% concentration, same beverage formulation pH 3.6) is recorded as “retards the growth rate”.
On to `C/C=C/C=C/C(=O)[O-].[K+]` [potassium sorbate], for which the rate of dissolution result in data set [5] is on record as “measurably low”. Besides, in [5], the solubility result is recorded as “not particularly soluble”. The entries for the “concentration of potassium sorbate required to inhibit mold” value with Mold (M1 & M6) (combined with EDDS (30 ppm)), in the data set on Mold (M1 & M6) (combined with EDTA (30 ppm)) and with Mold (M1 & M6) (potassium sorbate employed alone) were 140-160 ppm, 140-160 ppm and 180-200 ppm, respectively. In the data set on strain Y3 [6] (pH 3.4, 16 weeks at 25 C, FIG. 3A), the “concentration of potassium sorbate required to inhibit Y3 or similar strains” value is listed as 550-600 ppm. In addition, in the data set on strain Y3 [6] (pH 3.4, FIG. 3A), the “range of potassium sorbate concentrations with both growth and growth-free samples of Y3” value is given as 460-660 ppm. In addition, the “amount of potassium sorbate required to preserve product in the absence of Y3” value in data set [7] is recorded as 220-250 ppm.
In the case of `O=C(O)CC(NCCNC(CC(=O)O)C(=O)O)C(=O)O` (centres unmarked) [EDDS, ethylenediamine-N,N′-disuccinic acid], in [1] (15 or 30 ppm EDDS vs 30 ppm EDTA, potassium sorbate varied, FIGS. 4A-4C), the “preservative performance compared with EDTA when combined with a single weak acid preservative” value is “equivalent to EDTA”.
